Patent publication US11369569B2, “Target-specific delivery of therapeutic agents” (University of Virginia Patent Foundation, priority 2015, dated 2022)
Read-outs that look alike come from different tables or passages of the source.

Assays:
VEGFR2 = target: T1, VEGFR2 (Mus musculus, UniProt P35918); assay type: in vivo; details: for Vessel volume fraction (VVF) in infarct region: day 7 post-MI
T1 construct: from tissue; host or cells: endothelium of infarct/border zone in mouse heart (in vivo)

[1] = tested on: cell types of interest in the infarct/border zone; assay: Immunofluorescence of heart sections to identify cell types bound by phage clones; assay type: in vivo, mice; details: immunostaining
Experimental: Following ex vivo imaging of heart and liver, hearts from the mice under study were fixed in 4% paraformaldehyde for 1 h followed by equilibration in 30% sucrose for overnight at 4° C. The hearts were washed 3-4 times in DPBS (Dulbecco's phosphate-buffered saline) and placed in OCT medium (Sakura Finetek USA, Inc, Torrance, Calif.) and frozen by placing over liquid N2 vapors. The embedded tissue samples cut into 5-7 μm sections using a cryostat (Leica Microsystems Inc, Buffalo Grove, Ill.), for subsequent imaging with a fluorescence microscope fitted with appropriate filter sets (Olympus BX41). Cell types of interest in the infarct/border zone were identified by immunohistochemistry using the following antibodies: rat anti-mouse CD 31 at 1:250 dilution (endothelial marker)(BD Biosciences, San Jose, Calif.), rat anti-mouse myoglobin at 1:200 (cardiomyocyte marker) (Santa Cruz Biotechnology Inc, Dallas, Tex.), anti-alpha-smooth muscle actin (aSMA) conjugated with Alexa Fluor 488 at 1:200 (myofibroblast marker) (Sigma Chemical Co., St. Louis, Mo.), and rabbit anti-mouse c-Kit at 1:150 (cardiac progenitor cell marker) (Santa Cruz Biotechnology Inc, Dallas, Tex.). […] Appropriate secondary antibodies were employed as needed to identify the primary antibodies:goat anti-rat Alexa Fluor 488 (1:250) and goat anti-rabbit Alexa Fluor 488 (1:250) (Abcam, Cambridge, Mass.). Binding of I-1 and B-50 phage clones to cardiomyocytes and c-Kit+ cells was determined by flow cytometry. The RL-14 cardiomyocyte cell line (ATCC) was used to test the binding of fluorescently labeled I-1 phage (VivoTag 645) and myocardial infarct derived cardiac and bone marrow cells to test the binding of fluorescently labeled B-50 phage (VivoTag 680).

CRIP-2 = target: T2, CRIP-2 (Mus musculus, UniProt Q9DCT8); parameters: reference not given here; details: via binding to CRIP-2 in myocardium and endothelium; cited from earlier work
T2 construct: host or cells: myocardium and endothelium of the heart
T2 sequence (Q9DCT8 1-208): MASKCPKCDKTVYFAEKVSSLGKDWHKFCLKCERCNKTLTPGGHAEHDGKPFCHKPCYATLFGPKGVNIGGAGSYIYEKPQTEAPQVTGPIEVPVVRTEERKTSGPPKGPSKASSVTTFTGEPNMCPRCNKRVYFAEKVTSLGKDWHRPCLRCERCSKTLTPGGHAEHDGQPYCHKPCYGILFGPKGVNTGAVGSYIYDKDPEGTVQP

[2] = tested on: cell types of interest in the infarct/border zone; assay: Immunofluorescence co-localization of peptide-conjugated liposomes with cell markers (JACoP, Mander's overlap); assay type: in vivo, mice; details: post-MI hearts
EF fragment of Hornerin = target: T3, EF fragment of Hornerin (Homo sapiens, UniProt Q86YZ3); assay: Biolayer interferometry of B-40 binding to hornerin EF fragments; details: biotinylated B-40 peptide on streptavidin sensors
T3 construct: Different versions of the hornerin fragments containing EF domains were created; made in house
T3 sequence (Q86YZ3 1-81 limits assumed): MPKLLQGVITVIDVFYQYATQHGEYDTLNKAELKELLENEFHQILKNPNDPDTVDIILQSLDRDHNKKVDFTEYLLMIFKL
Experimental: FIG. 31 depicts biolayer interferometry to determine B-40 liposome binding to EF fragment of Hornerin. Using Fortebio octect system, B-40 liposomes binding to EF fragment was carried out. Streptavidin sensors were coated with Biotinylated EF fragments and their interaction with no peptide, I-1 and B-40 liposomes was tested.
FIG. 33 depicts biolayer interferometry to determine B-40 liposome binding to EF domains. Using Fortebio octect system, B-40 peptide binding to different EF fragments was carried out. Streptavidin sensors were coated with biotinylated B-40 peptide and its interaction with different fragments containing EF domains was carried out.

T1 sequence (P35918 20-1345): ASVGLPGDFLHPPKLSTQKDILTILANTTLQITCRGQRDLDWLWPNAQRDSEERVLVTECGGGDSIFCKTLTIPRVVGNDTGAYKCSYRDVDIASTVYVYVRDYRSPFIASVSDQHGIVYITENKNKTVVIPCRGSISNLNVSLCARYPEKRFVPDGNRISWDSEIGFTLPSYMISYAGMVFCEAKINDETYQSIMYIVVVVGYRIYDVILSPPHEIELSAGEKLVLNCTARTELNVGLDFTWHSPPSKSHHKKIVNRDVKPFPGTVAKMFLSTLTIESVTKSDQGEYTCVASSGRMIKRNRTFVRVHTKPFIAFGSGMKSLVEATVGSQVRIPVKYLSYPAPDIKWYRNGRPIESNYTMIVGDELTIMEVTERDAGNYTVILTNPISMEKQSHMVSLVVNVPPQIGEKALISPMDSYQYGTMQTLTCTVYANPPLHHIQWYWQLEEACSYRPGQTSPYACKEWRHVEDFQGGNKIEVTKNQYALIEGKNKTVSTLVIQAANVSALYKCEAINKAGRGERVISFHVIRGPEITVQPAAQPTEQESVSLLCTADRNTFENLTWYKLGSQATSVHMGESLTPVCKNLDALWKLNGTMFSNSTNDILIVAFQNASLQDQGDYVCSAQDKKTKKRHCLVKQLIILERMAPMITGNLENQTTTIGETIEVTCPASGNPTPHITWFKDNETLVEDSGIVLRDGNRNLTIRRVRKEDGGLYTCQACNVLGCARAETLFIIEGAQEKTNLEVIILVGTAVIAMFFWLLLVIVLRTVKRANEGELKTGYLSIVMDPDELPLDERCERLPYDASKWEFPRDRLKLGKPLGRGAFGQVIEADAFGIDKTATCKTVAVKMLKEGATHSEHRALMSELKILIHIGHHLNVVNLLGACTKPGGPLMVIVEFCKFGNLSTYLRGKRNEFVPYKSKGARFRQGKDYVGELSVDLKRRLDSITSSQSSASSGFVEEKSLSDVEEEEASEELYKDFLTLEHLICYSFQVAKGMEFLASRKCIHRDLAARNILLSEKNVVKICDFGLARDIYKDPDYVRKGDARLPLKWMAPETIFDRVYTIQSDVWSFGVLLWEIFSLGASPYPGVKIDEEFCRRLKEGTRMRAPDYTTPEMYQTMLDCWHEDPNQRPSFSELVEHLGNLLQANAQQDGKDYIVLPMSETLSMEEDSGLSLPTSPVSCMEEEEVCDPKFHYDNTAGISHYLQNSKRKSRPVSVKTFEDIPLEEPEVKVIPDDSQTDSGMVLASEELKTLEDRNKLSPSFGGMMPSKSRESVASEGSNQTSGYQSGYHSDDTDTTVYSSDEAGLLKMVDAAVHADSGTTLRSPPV

Compound	Cell type / component for which phage clone is specific [1]	Cell type for which peptide conjugated liposomes are specific [2]	other results
Clc1ccc(Nc2nnc(Cc3ccncc3)c3ccccc23)cc1 [PTK787]			Percent effective in reducing neovessel formation (VEGFR2; 20 mg/kg-d): 18%; Vessel volume fraction (VVF) in infarct region (VEGFR2; 20 mg/kg-d): 0.052; Percent effective in reducing neovessel formation (VEGFR2; 100 mg/kg-d): 65%; Vessel volume fraction (VVF) in infarct region (VEGFR2; 100 mg/kg-d): 0.021; Vessel volume fraction (VVF) in infarct region (VEGFR2; 100 mg/kg-d, listed as free PTK787): 0.022; Median (ED50, bootstrap) (VEGFR2; 1000 nonparametric bootstrap data sets): 63 mg/kg-d; Estimated (ED50) (VEGFR2; Imax model fit from vessel volume fraction): 63 mg/kg-d
AMRPPLN (listed as Homo sapiens) [B-42]	cardiomyocytes		
ATMSRAP (listed as Homo sapiens) [B-47]	endothelial cells		
CRPPR [CRPPR-peptide]			Targeting to the heart (CRIP-2): 47 fold
ESRQVTP (listed as Homo sapiens) [B-43]	extracellular matrix		
GLSQLQR (listed as Homo sapiens) [B-50]	c-Kit+ cells	c-Kit+ cells	
NCP: intentionally off-target peptide (Panc-27) previously shown to be specific for pancreatic cancer cells (KTLLPTP) [reference compound]		non-specifically taken up by macrophages	
RPPALAP (listed as Homo sapiens) [B-29]	myofibroblasts	myofibroblasts	
SDTWSSR (listed as Homo sapiens) [B-7]	myofibroblasts		
SHSNARS (listed as Homo sapiens) [B-27]	c-Kit+ cells		
SLLNRMP (listed as Homo sapiens) [B-40]	endothelial cells	endothelial cells	Binding to fragments containing EF domains (EF fragment of Hornerin): possible binding partner
TALPRLN (listed as Homo sapiens) [I-1]	cardiomyocytes	cardiomyocytes	
TMQHDG (listed as Homo sapiens) [B-11]	extracellular matrix		
